Results published in PMC3646888 (PLoS ONE, 2013).

Target: T1, CYP1A2r (Rattus norvegicus, UniProt P04799)
T1 sequence (P04799 1-513): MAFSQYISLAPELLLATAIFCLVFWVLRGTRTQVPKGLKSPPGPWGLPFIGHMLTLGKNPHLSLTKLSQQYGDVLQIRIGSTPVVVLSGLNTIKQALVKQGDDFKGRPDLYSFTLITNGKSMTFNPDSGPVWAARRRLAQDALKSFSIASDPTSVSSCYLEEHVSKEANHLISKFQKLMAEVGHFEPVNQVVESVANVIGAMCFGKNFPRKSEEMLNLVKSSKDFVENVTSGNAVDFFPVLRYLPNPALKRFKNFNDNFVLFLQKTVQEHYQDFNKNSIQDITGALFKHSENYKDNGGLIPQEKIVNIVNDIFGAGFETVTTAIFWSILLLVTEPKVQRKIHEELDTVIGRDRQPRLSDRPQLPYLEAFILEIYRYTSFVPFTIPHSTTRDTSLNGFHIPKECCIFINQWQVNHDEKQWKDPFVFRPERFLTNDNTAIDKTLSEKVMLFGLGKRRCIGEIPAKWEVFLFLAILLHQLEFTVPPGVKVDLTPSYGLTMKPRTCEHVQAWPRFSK
Assay: Fluorescence-based CYP assay, recombinant CYP1A2r, substrate EFC
Format: in vitro ADME
Settings: concentrations up to 80 µM
Experimental: These assays were performed by methods similar to those described by VanAlstine and Hough, Stresser et al., Wulff et al., Henderson et al., and Crespi et al., with minor modifications. All incubations were performed in a final volume of 200 µL of 50 mM potassium phosphate buffer at pH 7.4 containing 1% acetonitrile. CYP inhibitor studies were performed according to the parameters of Table 1. Substrate concentrations were chosen to be near known Km values. As described in the references cited, two different NADPH regenerating systems were used depending on the substrates used (Table 1). […] Samples were pre-incubated at 37°C for the designated times, and the reactions were initiated with the addition of a substrate and enzyme mixtures (Table 1). […] For the assays utilizing the “high” regenerating system, enzyme reactions were terminated at the designated time by the addition of 75 µL of 2N NaOH, followed by a 2 h post-incubation at 37°C. Product formation was then measured at the designated wavelengths (Table 1). For the “low” regenerating system assays, blanks and standards were prepared in 0.1 mL buffer without the regenerating system. For the “high” regenerating system assays, blanks and standards containing 0.1 mL of buffer received 75 µL of 2N NaOH following pre-incubation.

Clc1ccc(COC(Cn2ccnc2)c2ccc(Cl)cc2Cl)c(Cl)c1 (stereo not shown) [miconazole]
Inhibition of CYP1A2r (in words): did not inhibit
